{
  "source": "paper PMC5462475",
  "about": "“A conformational switch high-throughput screening assay and allosteric inhibition of the flavivirus NS2B-NS3 protease” (PLoS Pathogens, 2017)",
  "key": {"[1]": {"target": "T1, unlinked ZIKV NS2B/NS3 protease (Zika virus, UniProt A0A024B7W1)", "T1 construct": "The construct contains the NS2B residues 49–95 and the NS3 residues 1–185; made in house; host or cells: E. coli (Rosetta 2(DE3))", "assay": "ZIKV unlinked NS2B/NS3 protease inhibition assay", "format": "biochemical", "conditions": "protease 150 nM", "source_text": "As flavivirus NS3 is highly conserved (Fig 3C), it is possible that the inhibitors identified are broad spectrum flavivirus inhibitors. We therefore investigated whether NSC135618 is effective against other flaviviruses. Because ZIKV treatment currently has the most urgent need, we evaluated the efficacy of the compound on ZIKV. To this end, we first constructed an unlinked NS2B/NS3 heterocomplex of ZIKV in the pET28a vector by engineering a 3C protease cleavage site within the GGGSGGGG linker region between NS2B and NS3. The NS2B/NS3 protease was first expressed as a His-tagged covalently linked single chain protein in E coli. The unlinked ZIKV NS2B/NS3 protease complex was generated by on-column digestion with thrombin and 3C proteases, followed by gel filtration chromatography.\nFig 7 Inhibition of the ZIKV protease activity, viral titer, protein expression, and viral RNA replication by NSC135618. […] ST, molecular weight (MW) standard. (B) Dose response inhibition of the unlinked ZIKV NS2B-NS3 protease by NSC135618. The NS2b/NS3 protease was at 150 nM. N = 3. (C) Dose-dependent inhibition of ZIKV by NSC135618 in A549 cells. Viral plaque reduction assay was used. N = 3. (D) Immunofluorescence assay (IFA) of inhibition of viral protein expression for ZIKV-infected A549 cells by NSC135618, using pan flavivirus anti-E antibody 4G2. […]"}, "[2]": {"target": "T2, DENV2 NS2B-CLuc-NS3-119-NLuc-NS3 120-to-NS3_C (N2CN3N) (UniProt P08659+P14340)", "T2 construct": "pairs of primers of 1394F and 1440C for NS2B and 1476F and 1660C for NS3; made in house; host or cells: Escherichia coli Rosetta 2(DE3)", "format": "biochemical"}, "ZIKV [3]": {"tested_on": "ZIKV", "assay": "microbe, parasite or virus in culture", "format": "cell-based", "conditions": "HPECs, MOI 2"}, "ZIKV [4]": {"tested_on": "ZIKV", "assay": "microbe, parasite or virus in culture", "format": "cell-based", "conditions": "hNPCs, MOI 2"}, "unlinked DENV2 NS2B/NS3": {"target": "T3, unlinked DENV2 NS2B/NS3 (Dengue virus type 2, UniProt P14340)", "T3 construct": "pairs of primers of 1394F and 1440C for NS2B and 1476F and 1660C for NS3; made in house; host or cells: Escherichia coli Rosetta 2(DE3)", "assay": "Protein thermal shift assay (PTSA), unlinked DENV2 NS2B/NS3", "format": "binding", "conditions": "unlinked NS2B/NS3 2.5 μM, compound 4.8 μM", "source_text": "N = 3. […] N = 3. […] PP, ZIKV polyprotein precursor. **, p<0.05."}, "[5]": {"target": "T4, DENV2 NS2B-NS3 K74A mutant (Dengue virus type 2, UniProt P14340, K1549A)", "format": "binding"}, "[6]": {"target": "T5, DENV2 NS2B-NS3 I123A mutant (Dengue virus type 2, UniProt P14340, I1598A)", "format": "binding"}, "[7]": {"target": "T6, DENV2 NS2B-NS3 N152A mutant (Dengue virus type 2, UniProt P14340, N1627A)", "format": "binding"}, "[8]": {"target": "T7, DENV2 NS2B-NS3 V154A mutant (Dengue virus type 2, UniProt P14340, V1629A)", "format": "binding"}, "[9]": {"target": "T4, DENV2 NS2B-NS3 K74A mutant", "format": "biochemical", "conditions": "compound 6 μM, protein 150 nM, vs DMSO"}, "[10]": {"target": "T5, DENV2 NS2B-NS3 I123A mutant", "format": "biochemical", "conditions": "compound 6 μM, protein 150 nM, vs DMSO"}, "[11]": {"target": "T7, DENV2 NS2B-NS3 V154A mutant", "format": "biochemical", "conditions": "compound 6 μM, protein 150 nM, vs DMSO"}, "[12]": {"target": "T6, DENV2 NS2B-NS3 N152A mutant", "format": "biochemical", "conditions": "compound 6 μM, protein 150 nM, vs DMSO"}, "DENV2 [13]": {"tested_on": "DENV2"}, "ZIKV [14]": {"tested_on": "ZIKV", "conditions": "A549 cells"}, "WNV [15]": {"tested_on": "WNV"}, "YFV [16]": {"tested_on": "YFV"}, "in vitro": {"assay": "in vitro", "conditions": "human"}, "DENV2 [17]": {"tested_on": "DENV2", "assay": "microbe, parasite or virus in culture", "conditions": "Dengue virus, A549, 48 h, read-out: EC50, DENV2 viral reduction"}, "ZIKV [18]": {"tested_on": "ZIKV", "assay": "microbe, parasite or virus in culture", "conditions": "Zika virus, A549, 48 h, read-out: EC50, ZIKV viral reduction"}, "WNV [19]": {"tested_on": "WNV", "assay": "microbe, parasite or virus in culture", "conditions": "West Nile virus, A549, 48 h, read-out: EC50, WNV viral reduction"}, "YFV [20]": {"tested_on": "YFV", "assay": "microbe, parasite or virus in culture", "conditions": "Yellow fever virus, A549, 48 h, read-out: EC50, YFV viral reduction"}, "[21]": {"tested_on": "ZIKV NS3 / polyprotein precursor", "assay": "Western blot of ZIKV NS3 expression and polyprotein processing in infected A549 cells"}, "[22]": {"conditions": "protein 2.5 μM, compound 4.8 μM"}},
  "note": "Entries after “also recorded” stand apart in the source; their conditions may differ. Like-named read-outs stand apart in the source and are kept apart here.",
  "data": [
    {"smiles": "O=C1C=CC(=NNc2ccc([N+](=O)[O-])cc2Cl)C=C1C(=O)Nc1cccc(Cl)c1", "note": "[NSC135618]", "values": [
      {"measurement": "IC50", "setting": "[1]", "result": 380, "unit": "nM"},
      {"measurement": "suppression of NPGB-induced SLC enhancement", "setting": "[2]; compound 40 μM, NPGB 30 μM, N2CN3N 150 nM", "result": "abolish the SLC enhancement induced by NPGB to the background level"},
      {"measurement": "effect of compound alone on background SLC", "setting": "[2]; compound 40 μM, no NPGB, compared to DMSO", "result": "did not have significant effect on background SLC"},
      {"measurement": "inhibition of NPGB-induced SLC enhancement, concentration series", "setting": "[2]; serial dilution of compound, NPGB 30 μM", "result": "significantly suppressed the SLC enhancement; also recorded: clearly inhibited the NPGB-induced SLC enhancement in a dose dependent manner"},
      {"measurement": "ZIKV RNA replication (qRT-PCR)", "setting": "ZIKV [3]", "result": "drastically decreased ZIKV RNA replication"},
      {"measurement": "ZIKV protein expression (IFA)", "setting": "ZIKV [3]", "result": "drastically decreased"},
      {"measurement": "inhibition of ZIKV (titer)", "setting": "ZIKV [3]", "result": "effectively inhibited ZIKV in HPECs in a dose-dependent manner"},
      {"measurement": "EC50", "setting": "ZIKV [3]; Zika virus, Epithelial cell, read-out: EC50, ZIKV inhibition in HPECs", "result": 1000, "unit": "nM"},
      {"measurement": "EC50", "setting": "ZIKV [4]; Zika virus, read-out: EC50, ZIKV inhibition in hNPCs", "result": 1900, "unit": "nM"},
      {"measurement": "ZIKV RNA replication (qRT-PCR)", "setting": "ZIKV [4]", "result": "considerably reduce"},
      {"measurement": "ZIKV protein expression (IFA)", "setting": "ZIKV [4]", "result": "considerably reduce"},
      {"measurement": "reduction of ZIKV titers", "setting": "ZIKV [4]", "result": "considerably reduce ZIKV titers"},
      {"measurement": "increase of melting temperature (ΔTm) vs DMSO", "setting": "unlinked DENV2 NS2B/NS3", "result": 4.8, "unit": "°C"},
      {"measurement": "Tm (K74A)", "setting": "[5]; Fig 10D", "result": 42.19, "unit": "°C"},
      {"measurement": "ΔTm (K74A)", "setting": "[5]; [22]", "result": 2.48, "unit": "°C"},
      {"measurement": "Tm (I123A)", "setting": "[6]; Fig 10D", "result": 44.34, "unit": "°C"},
      {"measurement": "ΔTm (I123A)", "setting": "[6]; [22]", "result": 2.69, "unit": "°C"},
      {"measurement": "Tm (N152A)", "setting": "[7]; Fig 10D", "result": 53.63, "unit": "°C"},
      {"measurement": "ΔTm (N152A)", "setting": "[7]; [22]", "result": 0.55, "unit": "°C"},
      {"measurement": "Tm (V154A)", "setting": "[8]; Fig 10D", "result": 52.09, "unit": "°C"},
      {"measurement": "ΔTm (V154A)", "setting": "[8]; [22]", "result": 1.75, "unit": "°C"},
      {"measurement": "inhibition of protease activity of K74A mutant", "setting": "[9]", "result": "retains its inhibition activity"},
      {"measurement": "inhibition of protease activity of I123A mutant", "setting": "[10]", "result": "retains its inhibition activity"},
      {"measurement": "inhibition of protease activity of V154A mutant", "setting": "[11]", "result": "slightly reduced the inhibition activity"},
      {"measurement": "inhibition of protease activity of N152A mutant", "setting": "[12]", "result": "completely abolished the inhibition activity"},
      {"measurement": "DENV2 viral RNA copy numbers (qRT-PCR)", "setting": "DENV2 [13]; A549 cells", "result": "greatly reduced viral RNA copy numbers in a dose dependent manner"},
      {"measurement": "EC50, DENV2 viral reduction", "setting": "DENV2 [13]; A549 cells, MOI 0.1, 48 h", "result": "low micromolar range"},
      {"measurement": "DENV2 viral production (titer) relative to DMSO control", "setting": "DENV2 [13]; A549 cells, compound at 1, 10 and 100 μM, 48 h post-infection", "result": "significantly reduced"},
      {"measurement": "TI (therapeutic index, CC50/EC50)", "setting": "DENV2 [13]; DENV2, A549 cells", "result": 60},
      {"measurement": "ZIKV viral protein expression (IFA, anti-E antibody 4G2)", "setting": "ZIKV [14]", "result": "greatly reduced viral protein expression"},
      {"measurement": "EC50, ZIKV viral reduction", "setting": "ZIKV [14]; MOI 0.1, 48 h", "result": "low micromolar range"},
      {"measurement": "ZIKV viral RNA copy numbers (qRT-PCR)", "setting": "ZIKV [14]; supernatant", "result": "greatly reduced"},
      {"measurement": "TI (therapeutic index, CC50/EC50)", "setting": "ZIKV [14]; ZIKV", "result": 49},
      {"measurement": "TI (therapeutic index, CC50/EC50)", "setting": "WNV [15]", "result": 38},
      {"measurement": "EC50, WNV viral reduction", "setting": "WNV [15]; A549 cells, MOI 0.1, 48 h", "result": "low micromolar range"},
      {"measurement": "EC50, YFV viral reduction", "setting": "YFV [16]", "result": "low micromolar range"},
      {"measurement": "TI (therapeutic index, CC50/EC50)", "setting": "YFV [16]", "result": 174},
      {"measurement": "CC50", "setting": "in vitro", "result": 48800, "unit": "nM"},
      {"measurement": "EC50", "setting": "DENV2 [17]", "result": 810, "unit": "nM"},
      {"measurement": "EC50", "setting": "ZIKV [18]", "result": 1000, "unit": "nM"},
      {"measurement": "EC50", "setting": "WNV [19]", "result": 1270, "unit": "nM"},
      {"measurement": "EC50", "setting": "YFV [20]", "result": 280, "unit": "nM"},
      {"measurement": "unprocessed viral polyprotein precursor (high MW band, Western blot)", "setting": "[21]; 0.19 μM to 3 μM", "result": "accumulation of high molecular weight (MW) protein"},
      {"measurement": "ZIKV NS3 expression (Western blot, normalized to GAPDH)", "setting": "[21]; 0.75 μM to 6 μM, 48 h", "result": "significant inhibition of ZIKV NS3 expression"},
      {"measurement": "viral protein expression (Western blot)", "setting": "[21]; 6 μM", "result": "nearly completely suppressed viral protein expression"}
    ]}
  ]
}
